Assay results taken from patent US20220089646A1 (THE UNIVERSITY OF QUEENSLAND, priority 2019, published 2022).
*1 amine or outer side, *2 acyl side, *3 side chain or, on linkers, in order; H or OH if unused. Where a SMILES comes first, the peptide text is derived from it. Bridges are numbered along the chain shown (N, C = ends). [ ]: non-standard residue; d: D form. ξ: configuration not given here. Phe(4-NO2) = N[C@@H](Cc1ccc([N+](=O)[O-])cc1)C(=O)O; Phe(4-Cl) = N[C@@H](Cc1ccc(Cl)cc1)C(=O)O; NHCH2CMe2S = CC(C)(CN[*:1])S[*:2]; NMeR = CN[C@@H](CCCNC(=N)N)C(=O)O; X1 = CC(C)(CN[*:2])S[*:1]; ξC = NC(CS)C(=O)O; Sar = CNCC(=O)O

Assays:
trypsin = biological target: T1, trypsin (Bos taurus, UniProt P00760); test: Trypsin stability; format: in vitro ADME; conditions: for Trypsin: complete degradation within: 37° C. (Table 8)
T1 sequence (P00760 24-246): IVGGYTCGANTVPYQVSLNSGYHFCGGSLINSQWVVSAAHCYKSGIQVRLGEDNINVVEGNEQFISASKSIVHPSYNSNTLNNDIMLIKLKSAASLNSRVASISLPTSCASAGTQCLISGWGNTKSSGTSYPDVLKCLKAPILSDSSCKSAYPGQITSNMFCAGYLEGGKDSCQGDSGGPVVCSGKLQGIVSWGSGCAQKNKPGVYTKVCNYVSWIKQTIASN
Method: (§1) Purified DP-7-11 (1 mg/mL) was dissolved in 0.1 M ammonium bicarbonate (NH4HCO3) buffer. To prepare a stock trypsin solution, 1 mg trypsin was dissolved in 50 mL of 0.1 M NH4HCO3 buffer. Equal volumes of the stock trypsin solution (62.5 μL) and DP-7-11 solution (62.5 μL) were incubated in 375 μL of 0.1M NH4HCO3 buffer in a 37° C. water bath. Aliquots of 100 μL were collected from this mixture at set time intervals of 0 min, up to 24 hours. Ice-cold acetonitrile containing 0.5% TFA was used to quench the reaction between DP-7-11 and trypsin at predetermined intervals, and just prior to HPLC or LC-MS analysis. The quenched samples were vortexed for 10 minutes followed by centrifugation at 12,000 rpm for a further 15 minutes. Supernatant was sampled and analysed using analytical RP-HPLC or LC-MS. Samples without trypsin acted as negative controls and were sampled at two intervals of 0 hour and 6 hours.
(§2) As used in this serum and trypsin stability discussion, the term ‘degraded completely’ relates to the relevant compound being completely absent when tested. In other words, the compound being tested is not observed when tested.
(§3) The serum and trypsin stability of DP-7-11 and DP-7-12 were tested (in some instances again) using LC-MS. The LC-MS utilized in this study was more sensitive than the LC-MS utilized in the above tests.

DOP = DOP (Homo sapiens, UniProt P41143); test: In vitro cAMP activity at DOP (Table 10); format: cell-based; conditions: cAMP inhibition, four-parameter regression
Chain of DOP (P41143 whole entry): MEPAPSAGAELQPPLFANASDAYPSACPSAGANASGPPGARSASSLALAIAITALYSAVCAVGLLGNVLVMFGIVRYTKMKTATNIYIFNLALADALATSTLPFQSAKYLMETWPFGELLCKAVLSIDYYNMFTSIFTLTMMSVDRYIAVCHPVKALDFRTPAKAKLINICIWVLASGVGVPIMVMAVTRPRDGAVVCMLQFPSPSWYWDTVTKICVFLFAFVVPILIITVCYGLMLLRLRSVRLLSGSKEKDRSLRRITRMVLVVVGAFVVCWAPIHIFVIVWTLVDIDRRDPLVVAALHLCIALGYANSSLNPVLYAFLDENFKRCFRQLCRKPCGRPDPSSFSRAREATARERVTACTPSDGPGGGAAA
Method: (§4) The CP series compounds were assayed as follows: The assay was performed using a 96 well ½ area plate. The different cAMP standard solutions (3 μL/well) were plated in duplicate. The different concentrations of drug (3 μL/well), and control solutions (3 μL/well) were plated in triplicate. Following this, the acceptor bead mixture (3 μL/well) was added to the respective sets—either cAMP standard curve or the treatment. This was covered and incubated on the orbital shaker for 60 minutes at 37° C. Then, the donor bead mixture (10 μL/well) was added to each well. This was incubated at room temperature overnight on the orbital shaker.
(§5) For DP-11-06 the assay was carried out in the same way as for the CP compounds except it was incubated for 30 mins at 37° C.
(§6) For the CP series compounds and DP-11-06, the Ensight® Multimode Plate Reader was used to quantify the fluorescence units of each plate. Before reading, each plate was centrifuged at 280 g for 30 seconds. Using GraphPad Prism7® Software, cAMP concentrations were determined by fit spline/LOWESS analysis. The cAMP standard curve was used for interpolation at this point. The cAMP concentrations were then normalized to the highest cAMP concentration recorded and analyzed by one-way ANOVA for multiple comparisons. The IC50 for each compound was then calculated using GraphPad Prism7® with non-linear regression analysis using four parameter curve fitting.
(§7) In this regard, a different regression analysis method was adopted on the above cAMP experiments. Particularly, a new non-linear regression (four-parameter) was adopted to better account for hill slope, thereby improving the regression fit.

KOP = KOP (Homo sapiens, UniProt P41145); test: In vitro cAMP activity at KOP (Table 10); format: cell-based; conditions: cAMP inhibition, four-parameter regression, normalised to U50488H
Chain of KOP (P41145 whole entry): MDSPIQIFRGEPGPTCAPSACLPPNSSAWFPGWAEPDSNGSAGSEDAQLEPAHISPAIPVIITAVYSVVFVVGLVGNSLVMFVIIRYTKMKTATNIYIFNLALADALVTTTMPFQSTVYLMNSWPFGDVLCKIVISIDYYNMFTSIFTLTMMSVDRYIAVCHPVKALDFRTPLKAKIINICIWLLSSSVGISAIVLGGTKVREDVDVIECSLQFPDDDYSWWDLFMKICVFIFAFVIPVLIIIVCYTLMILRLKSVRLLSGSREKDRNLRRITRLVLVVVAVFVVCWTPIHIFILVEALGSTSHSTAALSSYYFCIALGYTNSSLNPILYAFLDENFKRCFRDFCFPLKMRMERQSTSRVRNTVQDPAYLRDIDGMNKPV
Method: as §4, §5, §6
(§8) The results shown in Table 10 utilized rat plasma. • Note that DP-7-11 and CP5 represent the same compound, and DP-7-12 and CP6 are the same compound. In this regard, a different regression analysis method was adopted on the above cAMP experiments. Particularly, a new non-linear regression (four-parameter) was adopted to better account for hill slope, thereby improving the regression fit.

MOP = MOP (Homo sapiens, UniProt P35372); test: In vitro cAMP activity at MOP (Table 10); format: cell-based; conditions: cAMP inhibition, four-parameter regression
Chain of MOP (P35372 whole entry): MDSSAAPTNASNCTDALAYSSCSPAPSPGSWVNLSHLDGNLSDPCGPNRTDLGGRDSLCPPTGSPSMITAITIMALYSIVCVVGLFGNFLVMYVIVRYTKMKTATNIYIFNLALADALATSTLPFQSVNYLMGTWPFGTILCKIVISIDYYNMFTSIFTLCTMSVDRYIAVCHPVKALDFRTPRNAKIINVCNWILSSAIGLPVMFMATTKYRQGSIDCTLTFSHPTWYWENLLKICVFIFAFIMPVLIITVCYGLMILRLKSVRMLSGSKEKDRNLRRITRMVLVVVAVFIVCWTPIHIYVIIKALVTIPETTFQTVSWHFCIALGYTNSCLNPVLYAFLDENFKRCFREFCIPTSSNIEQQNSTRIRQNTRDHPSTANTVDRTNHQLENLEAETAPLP
Method: as §4, §5, §6, §7

[1] = biological target: T2, bovine pancreatic trypsin (Bos taurus, UniProt P00760); test: Trypsin stability assay (Table 10); format: in vitro ADME; conditions: for half-life: bovine pancreatic trypsin 2.5 μg/mL, 37° C., One Phase Decay, read-out: Stability (t1/2, mins) Trypsin
T2 construct: from tissue; host or cells: bovine pancreas
T2 sequence (P00760 24-246): T1 sequence (P00760 24-246)
Text: (§9) FIG. 20 is a series of graphs showing the stability of selected peptides in a trypsin (left-hand graphs) and plasma (right-hand graphs) stability assay (data normalised to concentration of each peptide at t=0, determined by LCMS, within each substrate; data analysed using One Phase Decay nonlinear regression in Prism software and each experiment performed in triplicate; mean+/−SEM);
Plasma was collected in house from adult mixed-gender Wistar rats, prepared using 2% EDTA as per standard practice. Peptides were added to rat plasma samples at 37° C. (in a water bath) with final concentrations of 100 uM (1:9 peptide in water:plasma) and a 50 μL sample was immediately taken and precipitated in 150 μL cold acetonitrile (9:1 ACN:water). This sample became the baseline, or t=0 min sample. […] At each time point, the 50 μL of plasma collected was immediately added to cold ACN. Each collected plasma sample in ACN was directly vortexed for 30 seconds and then centrifuged at room temperature (13K rpm, 5 min). 150 μL of the supernatant was taken and directly placed in glass HPLC vials for LCMS analysis.
The protocol for the trypsin stability assay was very similar to the plasma stability assay discussed above. The only difference was the use of a trypsin solution (bovine pancreatic trypsin 2.5 μg/mL in NH4HCO3 buffer, pH approx. 8-8.5, 37° C.) instead of rat plasma. Volumes, times and preparation protocols were exactly as mentioned above.

[2] = Plasma stability assay (Table 10); format: in vitro ADME; conditions: rat plasma, 37° C., 100 uM peptide, One Phase Decay; read-out: Stability (t1/2, mins) Plasma
Text: as §9, §8
Plasma was collected in house from adult mixed-gender Wistar rats, prepared using 2% EDTA as per standard practice. Peptides were added to rat plasma samples at 37° C. (in a water bath) with final concentrations of 100 uM (1:9 peptide in water:plasma) and a 50 μL sample was immediately taken and precipitated in 150 μL cold acetonitrile (9:1 ACN:water). This sample became the baseline, or t=0 min sample. Plasma with peptide was immediately returned to the water bath and subsequent 50 μL samples were taken at 5, 10, 15, 30, 60 and 120 min. At each time point, the 50 μL of plasma collected was immediately added to cold ACN. Each collected plasma sample in ACN was directly vortexed for 30 seconds and then centrifuged at room temperature (13K rpm, 5 min). 150 μL of the supernatant was taken and directly placed in glass HPLC vials for LCMS analysis.

Serum stability = format: in vitro ADME; conditions: rat, serum, 37° C., LC-MS (Table 8)
Method: as §1
Serum stability of DP-7-11 was also performed. In this regard, rat serum replaced trypsin and NH4HCO3 buffer. Water was used as negative control in place of serum, with the stability study performed in an identical fashion to the trypsin study. […] DP-11-00 and DP-11-06 were tested in a similar manner.
as §2
This appears to indicate the improved metabolic stability of the present invention.
as §3

| Compound | EC50 (DOP) [nM] | EC50 (KOP) [nM] | EC50 (MOP) [nM] | half-life [1] [min] | half-life [2] [min] | further results |
| --- | --- | --- | --- | --- | --- | --- |
| CC[C@H](C)[C@H](NC(=O)[C@H](CCCN=C(N)N)NC(=O)[C@H](CCCN=C(N)N)NC(=O)[C@H](CC(C)C)NC(=O)[C@H](Cc1ccccc1)NC(=O)CNC(=O)CNC(=O)[C@@H](N)Cc1ccc(O)cc1)C(=O)N[C@@H](CCCN=C(N)N)C(=O)N1CCC[C@H]1C(=O)N[C@@H](CCCCN)C(N)=O [DP-11-00] | – | – | – | – | – | Susceptibility to trypsin digestion (trypsin): highly susceptible; Trypsin: complete degradation within (trypsin): within 1 h |
| CC1(C)CNC(=O)C[C@@H](C(=O)N[C@@H](CCCNC(=N)N)C(=O)N[C@@H](CCCNC(=N)N)C(N)=O)NC(=O)[C@H](Cc2ccccc2)NC(=O)C(NC(=O)CNC(=O)[C@@H](N)Cc2ccc(O)cc2)CSS1 (stereo partly drawn) [CP3, c(Tyr-Gly-SSa-Phe-Asp-Arg-Arg)] (H-YG[ξC]FDRR-NH2; linker 3-5 via X1; N-terminus assumed) | > 10000 | > 10000 | > 10000 | – | – | – |
| CC1(C)CNC(=O)C[C@@H](NC(=O)CNC(=O)[C@@H](N)Cc2ccc(O)cc2)C(=O)N[C@@H](Cc2ccccc2)C(=O)N[C@H](C(=O)N[C@@H](CCCNC(=N)N)C(=O)N[C@@H](CCCNC(=N)N)C(N)=O)CSS1 [DP-7-14, c(Tyr-Gly-D(Asp)-Phe-SSa-Arg-Arg)] (H-YG[dD]FCRR-NH2; linker 3-5 via NHCH2CMe2S) | – | – | – | < 0.01 | < 0.01 | – |
| CC1(C)CNC(=O)C[C@H](NC(=O)[C@@H](N)Cc2ccc(O)cc2)C(=O)NCC(=O)N[C@@H](Cc2ccccc2)C(=O)NC(C(=O)N[C@@H](CCCNC(=N)N)C(=O)N[C@@H](CCCNC(=N)N)C(N)=O)CSS1 (stereo partly drawn) [CP2, c(Tyr-Asp-Gly-Phe-SSa-Arg-Arg)] (H-YDGF[ξC]RR-NH2; linker 2-5 via NHCH2CMe2S; N-terminus assumed) | 1380 | 320 | 2330 | < 0.01 | < 0.01 | – |
| CC[C@H](C)[C@H](NC(=O)C1CSSC(C)(C)CNC(=O)C[C@@H](NC(=O)[C@H](Cc2ccccc2)NC(=O)CNC(=O)CNC(=O)[C@@H](N)Cc2ccc(O)cc2)C(=O)N[C@@H](CCCNC(=N)N)C(=O)N1)C(=O)N[C@@H](CCCNC(=N)N)C(=O)N1CCC[C@H]1C(=O)N[C@@H](CCCCN)C(N)=O (stereo partly drawn) [DP-11-06, c(Tyr-Gly-Gly-Phe-D(Asp)-Arg-SSa-Ile-Arg-Pro-Lys)] (H-YGGF[dD]R[ξC]IRPK-NH2; linker 5-7 via NHCH2CMe2S; N-terminus assumed) | – | 0.75 | – | 360 | 30 | Peptide remained in trypsin after 360 minutes ([1]; n = 1): # (more than 90% remained after 360 minutes); half-life (Serum stability): 1800 s |
| CC(C)C[C@H](NC(=O)[C@H](Cc1ccc([N+](=O)[O-])cc1)NC(=O)CN(C)C(=O)[C@@H](N)Cc1ccc(O)cc1)C(=O)N[C@@H](CCCNC(=N)N)C(=O)N(C)[C@@H](CCCNC(=N)N)C(=O)NC1CSSC(C)(C)CNC(=O)C[C@@H](C(=O)N[C@@H](CCCCN)C(N)=O)NC(=O)[C@H](CCCNC(=N)N)NC1=O (stereo partly drawn) [CP12, c(Tyr-Sar-(p-NO2-Phe)-Leu-Arg-NMA-SSa-Arg-Asp-Lys)] (H-Y[Sar][Phe(4-NO2)]LR[NMeR][ξC]RDK-NH2; linker 7-9 via X1; N-terminus assumed) | – | 7.5 | – | 0.019 | < 0.01 | – |
| CC(C)C[C@H](NC(=O)[C@H](Cc1ccccc1)NC(=O)CNC(=O)CNC(=O)[C@@H](N)Cc1ccc(O)cc1)C(=O)N[C@@H](CCCNC(=N)N)C(=O)N[C@@H](CCCNC(=N)N)C(N)=O [DP-7-00, Tyr-Gly-Gly-Phe-Leu-Arg-Arg] | – | – | – | – | – | Susceptibility to trypsin digestion (trypsin): highly susceptible; Trypsin: complete degradation within (trypsin): within 1 h |
| CC1(C)CNC(=O)C[C@H](C(=O)N[C@@H](CCCNC(=N)N)C(=O)N[C@@H](CCCNC(=N)N)C(N)=O)NC(=O)[C@H](Cc2ccccc2)NC(=O)C(NC(=O)CNC(=O)[C@@H](N)Cc2ccc(O)cc2)CSS1 (stereo partly drawn) [DP-7-13, c(Tyr-Gly-SSa-Phe-D(Asp)-Arg-Arg)] (H-YG[ξC]F[dD]RR-NH2; linker 3-5 via X1; N-terminus assumed) | – | – | – | < 0.01 | < 0.01 | – |
| CC(C)C[C@H](NC(=O)[C@H](Cc1ccc(Cl)cc1)NC(=O)CN(C)C(=O)[C@@H](N)Cc1ccc(O)cc1)C(=O)N[C@@H](CCCNC(=N)N)C(=O)N[C@H](CCCNC(=N)N)C(=O)NC1CSSC(C)(C)CNC(=O)C[C@@H](C(=O)N[C@@H](CCCCN)C(N)=O)NC(=O)[C@H](CCCNC(=N)N)NC1=O (stereo partly drawn) [CP10, c(Tyr-Sar-(p-Cl-Phe)-Leu-Arg-D(Arg)-SSa-Arg-Asp-Lys)] (H-Y[Sar][Phe(4-Cl)]LR[dR][ξC]RDK-NH2; linker 7-9 via X1; N-terminus assumed) | 127 | 0.94 | 1600 | 2.3 | – | – |
| CC1(C)CNC(=O)C[C@H](NC(=O)CNC(=O)[C@@H](N)Cc2ccc(O)cc2)C(=O)N[C@@H](Cc2ccccc2)C(=O)NC(C(=O)N[C@@H](CCCNC(=N)N)C(=O)N[C@@H](CCCNC(=N)N)C(N)=O)CSS1 (stereo partly drawn) [CP4, c(Tyr-Gly-Asp-Phe-SSa-Arg-Arg)] (H-YGDF[ξC]RR-NH2; linker 3-5 via NHCH2CMe2S; N-terminus assumed) | > 10000 | > 10000 | > 10000 | – | – | – |
